Common to all, as to conditions: LPS (1 μg/mL)-stimulated hPBMCs, 5 hours, ELISA
Background: An ELISA detects its analyte on a solid surface through an enzyme-linked reagent.

One assay deals with TNF-α. The assay is described as follows: TNF-α inhibition in LPS-stimulated human peripheral blood mononuclear cells (primary screening). It is filed as cell-based. Here is the method:
(§1) TNF-α production by lipopolysaccharides (LPS) in hPBMCs was measured according to the method described by Jansky, L. et al (Physiol. Res. 52: 593-598, 2003), incorporated herein by reference. Blood was collected from healthy donors into Potassium EDTA vacutainer tubes (BD vacutainer). The PBMCs were isolated using gradient centrifugation in Histopaque-1077 solution (Sigma). Isolated PBMCs were suspended in RPMI 1640 culture medium (Gibco BRL, Pasley, UK) containing 10% fetal bovine serum (FBS) (Hyclone, Utah, USA), 100 U/ml penicillin (Sigma Chemical Co. St Louis, Mo.) and 100 μg/ml streptomycin (Sigma Chemical Co. St Louis, Mo.). The cell concentration was adjusted to 1×10^6 cells/mL. The viability as determined by trypan blue dye exclusion was uniformly ≧98%. The cell suspension (100 μL) was added to the wells of a 96-well culture plate. Following cell plating, 79 μL of the culture medium and 1 μL of eight different concentrations of the test compounds (final concentration 0.03, 0.1, 0.3, 1, 3, 10, 30, 100 μM) dissolved in DMSO (dimethylsulfoxide, Sigma, Mo., USA) were added to the cells. The final concentration of DMSO was adjusted to 0.5%. The vehicle (0.5% DMSO) was used as control. Rolipram (30, 100 μM) was used as a standard compound. The plates were incubated for 30 min at 37° C. in an atmosphere of 5% CO2. Finally, 20 μL (10 μg/mL) per well of LPS, (Escherchia coli 0127:B8, Sigma Chemical Co., St. Louis, Mo.) was added, for a final concentration of 1 μg/mL. The plates were incubated at 37° C. for 5 hours in an atmosphere of 5% CO2. To assess the cytotoxic effect of the test compounds, the cellular viability test was performed using MTS (3-(4,5-dimethylthiazol-2-yl)-5-(3-carboxymethoxyphenyl)-2-(4-sulfonyl)-2H-tetrazolium) reagent after 5 hours of incubation. Supernatants were harvested and assayed for TNF-α, IL-1β, IL-6 and IL-8 by ELISA as described by the manufacturer. (OptiEIA ELISA sets, BD Biosciences, Pharmingen). The 50% inhibitory concentration (IC50) values were calculated by a nonlinear regression method using GraphPad software (Prism 3.03)

The subject of another assay is IL-1β. The assay is described as follows: IL-1β released by LPS-stimulated hPBMCs. It is filed as cell-based, Human. Here is the method: as §1
The next assay concerns IL-6. The assay is described as follows: IL-6 released by LPS-stimulated hPBMCs. Type of assay: cell-based, Human. Here is the method:
as §1

Another assay concerns IL-8. The assay is described as follows: IL-8 released by LPS-stimulated hPBMCs. It is filed as cell-based, Human. The procedure: as §1

Structures can show the parent of a compound that is named as a salt.

The term IC50 denotes the concentration that gives 50% inhibition. `CC(=O)OCC1(O)C(=O)O[C@H]2C3=C(C)CCC[C@]3(C)CCC21O` (stereo partly drawn) [Compound of example 3, ((5aR,9bS)-3,3a-Dihydroxy-5a,9-dimethyl-2-oxo-2,3,3a,4,5,5a,6,7,8,9b-decahydronaphtho[1,2-b]furan-3-yl)methyl acetate]: in the assay on TNF-α (Homo sapiens, PBMC), the half-inhibitory concentration (IC50) came out at 500 nM. Take `CC1=C2[C@@H]3OC(=O)C(CN4CCCCC4)C3(O)CC[C@@]2(C)CCC1` (stereo partly drawn) [Compound of example 17, (5aR,9bS)-3a-Hydroxy-5a,9-dimethyl-3-(piperidin-1-ylmethyl)-3,3a,4,5,5a,6,7,8-octahydronaphtho[1,2-b]furan-2(9bH)-one]: the IC50 stood at 700 nM in the assay on TNF-α (Homo sapiens, PBMC); 260 nM with IL-1β (Homo sapiens); 3000 nM with IL-6 (Homo sapiens); 27600 nM with IL-8 (Homo sapiens). With `CC12CCCC3(C)OC13C1OC(=O)C(CN3CCCCC3)C1(O)CC2` (centres unmarked) [Compound of example 18, 13-(Piperidin-1-yl)-4,5-epoxy-7-hydroxyeudesm-6,12-olide], the IC50 in the assay with TNF-α is 400 nM; in the assay on IL-1β, 200 nM; in the assay on IL-6 it was 900 nM; with IL-8, 9200 nM. Molecule `CC1=C2[C@@H]3OC(=O)C(CN4CCOCC4)C3(O)CC[C@@]2(C)CCC1` (stereo partly drawn) [Compound of example 22, (5aR,9bS)-3a-Hydroxy-5a,9-dimethyl-3-(morpholinomethyl)-3,3a,4,5,5a,6,7,8-octahydronaphtho[1,2-b]furan-2(9bH)-one] registered an IC50 in the assay on TNF-α (Homo sapiens, PBMC) of 700 nM. In the assay on TNF-α, `CC1=C2[C@@H]3OC(=O)C(CN4CC[S+]([O-])CC4)C3(O)CC[C@@]2(C)CCC1` (stereo partly drawn) [Compound of example 25, (5aR,9bS)-3a-Hydroxy-5a,9-dimethyl-3-(thiomorpholino-1-oxide-methyl)-3,3a,4,5,5a,6,7,8-octahydronaphtho[1,2-b]furan-2(9bH)-one] showed a concentration for half-maximal inhibition (IC50) of 3300 nM. Molecule `CC1=C2[C@@H]3OC(=O)C(CN4CCN(Cc5ccccc5)CC4)C3(O)CC[C@@]2(C)CCC1` (stereo partly drawn) [Compound of example 27, (5aR,9bS)-3-((4-Benzylpiperazin-1-yl)methyl)-3a-hydroxy-5a,9-dimethyl-3,3a,4,5,5a,6,7,8-octahydronaphtho[1,2-b]furan-2(9bH)-one] showed an IC50 in the assay with TNF-α (Homo sapiens, PBMC) of 300 nM.

With `CC1=C2[C@@H]3OC(=O)C(CN4CCN(Cc5c(C)cccc5C)CC4)C3(O)CC[C@@]2(C)CCC1` (stereo partly drawn) [Compound of example 30, (5aR,9bS)-3-((4-(2,6-dimethylbenzyl)piperazin-1-yl)methyl)-3a-hydroxy-5a,9-dimethyl-3,3a,4,5,5a,6,7,8-octahydronaphtho[1,2-b]furan-2(9bH)-one], in the assay on TNF-α (Homo sapiens, PBMC), inhibition was half-maximal at 800 nM (IC50). With `CC1=C2[C@@H]3OC(=O)C(CN4CCN(Cc5ccccc5F)CC4)C3(O)CC[C@@]2(C)CCC1` (stereo partly drawn) [Compound of example 33, (5aR,9bS)-3-((4-(2-fluorobenzyl)piperazin-1-yl)methyl)-3a-hydroxy-5a,9-dimethyl-3,3a,4,5,5a,6,7,8-octahydronaphtho[1,2-b]furan-2(9bH)-one], the half-inhibitory concentration (IC50) with TNF-α (Homo sapiens, PBMC) worked out at 300 nM. For `CC1=C2[C@@H]3OC(=O)C(CN4CCN(Cc5c(F)cccc5C(F)(F)F)CC4)C3(O)CC[C@@]2(C)CCC1` (stereo partly drawn) [Compound of example 36, (5aR,9bS)-3-((4-(2-fluoro-6-(trifluoromethyl)benzyl)piperazin-1-yl)methyl)-3a-hydroxy-5a,9-dimethyl-3,3a,4,5,5a,6,7,8-octahydronaphtho[1,2-b]furan-2(9bH)-one], in the assay on TNF-α (Homo sapiens, PBMC), the IC50 came out at 1100 nM. For the molecule `COc1cc(CN2CCN(CC3C(=O)O[C@H]4C5=C(C)CCC[C@]5(C)CCC34O)CC2)c(CO)c(OC)c1` (stereo partly drawn) [Compound of example 38, (5aR,9bS)-3a-hydroxy-3-((4-(2-(hydroxymethyl)-3,5-dimethoxybenzyl)piperazin-1-yl)methyl)-5a,9-dimethyl-3,3a,4,5,5a,6,7,8-octahydronaphtho[1,2-b]furan-2(9bH)-one], the IC50 with TNF-α (Homo sapiens, PBMC) was 800 nM. `CCOC(=O)N1CCN(CC2C(=O)O[C@H]3C4=C(C)CCC[C@]4(C)CCC23O)CC1` (stereo partly drawn) [Compound of example 48, Ethyl 4-(((5aR,9bS)-3a-hydroxy-5a,9-dimethyl-2-oxo-2,3,3a,4,5,5a,6,7,8,9b-decahydronaphtho[1,2-b]furan-3-yl)methyl)piperazine-1-carboxylate hydrochloride]: inhibition in the assay with TNF-α (Homo sapiens, PBMC) was half-maximal at 700 nM (IC50).

For `CC1=C2[C@@H]3OC(=O)C(CN4CCN(c5ccccn5)CC4)C3(O)CC[C@@]2(C)CCC1` (stereo partly drawn) [Compound of example 53, (5aR,9bS)-3a-Hydroxy-5a,9-dimethyl-3-((4-(pyridin-2-yl)piperazin-1-yl)methyl)-3,3a,4,5,5a,6,7,8-octahydronaphtho[1,2-b]furan-2(9bH)-one], in the assay with TNF-α (Homo sapiens, PBMC), half-maximal inhibition (IC50) required 800 nM. For the molecule `CC1=C2[C@@H]3OC(=O)C(CN4CCN(CC5C(=O)O[C@H]6C7=C(C)CCC[C@]7(C)CCC56O)CC4)C3(O)CC[C@]2(C)CCC1` (stereo partly drawn) [Compound of example 54, (5aS,9bS)-3a-Hydroxy-3-((4-(((5aR,9bS)-3a-hydroxy-5a,9-dimethyl-2-oxo-2,3,3a,4,5,5a,6,7,8,9b-decahydronaphtho[1,2-b]furan-3-yl)methyl)piperazin-1-yl)methyl)-5a,9-dimethyl-3,3a,4,5,5a,6,7,8-octahydronaphtho[1,2-b]furan-2(9bH)-one], the half-maximal inhibitory concentration (IC50) in the assay on TNF-α (Homo sapiens, PBMC) amounted to 600 nM; in the assay on IL-1β (Homo sapiens) it was 200 nM; in the assay on IL-6 (Homo sapiens), 2100 nM; with IL-8 (Homo sapiens), 11700 nM.

Consider `CC1=C2[C@H]3OC(=O)C(CNCC4C(=O)O[C@H]5C6=C(C)CCC[C@]6(C)CCC45O)C3(O)CC[C@]2(C)CCC1` (stereo partly drawn) [Compound of example 55, (5aS,9bR)-3a-Hydroxy-3-((((5aR,9bS)-3a-hydroxy-5a,9-dimethyl-2-oxo-2,3,3a,4,5,5a,6,7,8,9b-decahydronaphtho[1,2-b]furan-3-yl)methylamino)methyl)-5a,9-dimethyl-3,3a,4,5,5a,6,7,8-octahydronaphtho[1,2-b]furan-2(9bH)-one hydrochloride], for which the half-inhibitory concentration (IC50) with TNF-α (Homo sapiens, PBMC) was 1200 nM; in the assay with IL-1β (Homo sapiens), 310 nM; with IL-6 (Homo sapiens), 3100 nM; in the assay with IL-8 (Homo sapiens) it was 29000 nM. On to `COC(=O)CNCC1C(=O)O[C@H]2C3=C(C)CCC[C@]3(C)CCC12O` (stereo partly drawn) [Compound of example 58, Methyl 2-(((5aR,9bS)-3a-hydroxy-5a,9-dimethyl-2-oxo-2,3,3a,4,5,5a,6,7,8,9b-decahydronaphtho[1,2-b]furan-3-yl)methylamino)acetate], for which the half-maximal inhibitory concentration (IC50) in the assay on TNF-α (Homo sapiens, PBMC) was 2000 nM. Turning to `CC1=C2[C@@H]3OC(=O)C(CNC4C(O)C(O)C(CO)O[C@H]4O)C3(O)CC[C@@]2(C)CCC1` (stereo partly drawn) [Compound of example 59, (5aR,9bS)-3a-Hydroxy-5a,9-dimethyl-3-(((2R)-2,4,5-trihydroxy-6-(hydroxymethyl)tetrahydro-2H-pyran-3-ylamino)methyl)-3,3a,4,5,5a,6,7,8-octahydronaphtho[1,2-b]furan-2(9bH)-one], half-maximal inhibition in the assay on TNF-α (Homo sapiens, PBMC) (IC50) was put at 400 nM. Same read-out and setting: the value for `CC1=C2[C@@H]3OC(=O)C(CN(C)CC(O)c4ccc(O)cc4)C3(O)CC[C@@]2(C)CCC1` (stereo partly drawn) [Compound of example 60, (5aR,9bS)-3a-Hydroxy-3-(((2-hydroxy-2-(4-hydroxyphenyl)ethyl)(methyl)amino)methyl)-5a,9-dimethyl-3,3a,4,5,5a,6,7,8-octahydronaphtho[1,2-b]furan-2(9bH)-one] was 200 nM.
